Assay results published in patent publication US12522597B2, “Methods and compositions for modulating splicing” (Skyhawk Therapeutics, Inc., priority 2019, dated 2026).
Read-outs that look alike come from different tables or passages of the source.

How the values were obtained:
mHTT protein = mHTT protein assay (2B7-MW1, Mesoscale Discovery); type: cell-based, human; details: GM04724 (CAG 70/20) Huntington's disease patient lymphoblast cells, 48 hours, 2B7-MW1 MSD; read-out: HTT Potency - Protein EC50 mHTT (average)
Procedure, shortened: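 mHTT levels were read with the 2B7-MW1 antibody pair (N17 and polyQ epitopes) on MSD after 48 h dosing, 10 μM–0.6 nM. Cells were GM04724 HD lymphoblasts (CAG 70/20). A replica plate was read by CTG for cell viability.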

[1] = system: Huntingtin (HTT) transcripts; assay: Quantitative splicing assay (HTT), qPCR; type: cell-based; details: Homo sapiens, GM04724 (CAG 70/20) Huntington's disease patient lymphoblasts, 24 h
Experimental: GM04724 (CAG 70/20) Huntington's disease patient lymphoblasts (Coriell) are plated in 96-wel v-bottom plates at 50,000 cells/well. Immediately after plating, cells are dosed with compound for 24 h at concentrations ranging from 2.5 uM to 0.15 nM (0.1% DMSO). Treated cells are lysed and cDNA synthesized using the Fast Advanced Cells-to-Ct kit (Thermofisher A35378) according to the manufacturer's instructions. 2 uL of each cDNA are used in qPCR reactions to confirm the compound-induced inclusion of a cryptic exon within intron 49 of the Huntingtin (HTT) transcripts. The qPCR reactions are prepared in 384-well plates in 10 uL volume, using TaqMan™ Fast Advanced Master Mix [ThermoFisher; 4444965] with primers and probes shown in the table below. Reactions are run in a Quant Studio 6 qPCR instrument with default settings.

MDR1 = assay: MDCK-MDR1 permeability assay (BBB penetration potential); type: in vitro ADME; details: dog; for efflux ratio at 120 min, 5 μM: MDCK-MDR1, pH 7.4, MDCK-MDR1: Efflux; for Papp A→B at 120 min, 5 μM: MDCK-MDR1, pH 7.4, MDCK-MDR1: Papp A-B; for Papp B→A at 120 min, 5 μM: MDCK-MDR1, pH 7.4, MDCK-MDR1: Papp B-A
Experimental: (§1) Each determination is performed in duplicate. […] Analytical conditions are outlined below.

[2] = system: MDR1-MDCK cell monolayers; assay: as above; type: in vitro ADME; details: dog, MDCK-MDR1, 120 min, 5 μM, pH 7.4
Experimental: as §1

[3] = qPCR HTTex49_50, read-out: HTT Potency - Splicing: E49-50 EC50 (average)
[4] = qPCR cryptic exon 49b inclusion, read-out: HTT Potency - Splicing: E49b EC50 (average)

Row | Compound | EC50 (mHTT protein) | EC50 [1, 3] | EC50 [1, 4] | efflux ratio at 120 min, 5 μM (MDR1) | Papp A→B at 120 min, 5 μM (MDR1) | Papp B→A at 120 min, 5 μM (MDR1) | MDCK-MDR1: % Recov A-B [2] | MDCK-MDR1: % Recov B-A [2] | MDCK-MDR1: Efflux [2] | MDCK-MDR1: Papp A-B [2] | MDCK-MDR1: Papp B-A [2]
1 | Cn1ccc2cc(-c3ccc(O[C@H]4C[C@]5(C)CC[C@@](C)(N5)[C@H]4F)nn3)c(O)cc2c1=O (single isomer, unassigned) [127-ENT1] | 51 to 100 nM | 101 to 500 nM | 101 to 500 nM | 7 | 6.39 ×10⁻⁶ cm/s | 46.5 ×10⁻⁶ cm/s | 78% | 70% | – | – | –
2 | Cn1cc(-c2cc(O)c(-c3ccc(O[C@@H]4C[C@H]5CCC[C@H](N5)[C@@H]4F)nn3)cc2F)cn1 (single isomer, unassigned) [82-ENT1] | 0.01 to 15 nM | 0.01 to 15 nM | 0.01 to 15 nM | 4 | 4.12 ×10⁻⁶ cm/s | 16.8 ×10⁻⁶ cm/s | 45% | 72% | – | – | –
3 | Cn1cc(-c2ccc(-c3ccc(O[C@H]4C[C@H]5CCC[C@H](N5)[C@@H]4F)nn3)c(O)c2)cn1 (single isomer, unassigned) [121-ENT1] | 501 to 10000 nM | 501 to 10000 nM | 501 to 10000 nM | 5 | 11 ×10⁻⁶ cm/s | 50.3 ×10⁻⁶ cm/s | 66% | 73% | – | – | –
4 | Oc1cc(-c2cn[nH]c2)ccc1-c1ccc(O[C@@H]2C[C@H]3CC[C@H](N3)[C@H]2F)nn1 (single isomer, unassigned) [43-ENT2] | 0.01 to 15 nM | 16 to 50 nM | 16 to 50 nM | 9 | 6.27 ×10⁻⁶ cm/s | 58.7 ×10⁻⁶ cm/s | 83% | 84% | – | – | –
5 | Cn1ccc2cc(-c3ccc(O[C@H]4C[C@]5(C)CCC[C@@](C)(N5)[C@H]4F)nn3)c(O)cc2c1=O (single isomer, unassigned) [156-ENT2] | 0.01 to 15 nM | 16 to 50 nM | 16 to 50 nM | 9 | 4.9 ×10⁻⁶ cm/s | 46.3 ×10⁻⁶ cm/s | 80% | 99% | – | – | –
6 | Cn1ccc(-c2ccc(-c3ccc(O[C@H]4C[C@@H]5CCC[C@@H](N5)[C@H]4F)nn3)c(O)c2)n1 (single isomer, unassigned) [68-ENT2] | 101 to 500 nM | 16 to 50 nM | 16 to 50 nM | 4 | 8.23 ×10⁻⁶ cm/s | 31.6 ×10⁻⁶ cm/s | 76% | 89% | – | – | –
7 | Cn1ccc2cc(O)c(-c3ccc(O[C@H]4C[C@@H]5CCC[C@@H](N5)[C@H]4F)nn3)cc2c1=O (single isomer, unassigned) [128-ENT1] | 16 to 50 nM | 51 to 100 nM | 51 to 100 nM | 7 | 5.27 ×10⁻⁶ cm/s | 38.6 ×10⁻⁶ cm/s | – | – | 11 | 5.78 10^−6, cm/s | 65.2 10^−6, cm/s
8 | Oc1cc(-c2cn[nH]c2)ccc1-c1ccc(O[C@@H]2C[C@H]3CC[C@H](N3)[C@@H]2F)nn1 (single isomer, unassigned) [42-ENT2] | 0.01 to 15 nM | 0.01 to 15 nM | 0.01 to 15 nM | 12 | 3.2 ×10⁻⁶ cm/s | 38.5 ×10⁻⁶ cm/s | 85% | 86% | – | – | –
9 | Cn1ccc(-c2ccc(-c3ccc(O[C@@H]4C[C@@]5(C)CCC[C@](C)(N5)[C@@H]4F)nn3)c(O)c2)cc1=O (single isomer, unassigned) [149-ENT2] | 16 to 50 nM | 16 to 50 nM | 16 to 50 nM | 24 | 1.94 ×10⁻⁶ cm/s | 45.7 ×10⁻⁶ cm/s | 76% | 73% | – | – | –
